# Data from patent US9510598B2, “Nitrogen-containing heterocyclic compounds for plant disease control” (BAYER CROPSCIENCE AG, priority 2012, dated 2016).
# Read-outs that look alike come from different tables or passages of the source.
# How the values were obtained:
# Botrytis cinerea = experiment: In vivo preventive test on Botrytis cinerea (grey mould); conditions: 500 ppm; gherkin plants sprayed 24 hours before contamination; grading 4-5 days after contamination vs control plants
# Outline: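 Gherkin plants ("Vert petit de Paris") sprayed with compound at Z11 cotyledon stage, then inoculated 24 h later with B. cinerea spores (50 000/ml) in PDB/fructose/NH4NO3/KH2PO4 nutrient solution. Incubated at 17 °C, 80% RH; % efficacy versus solvent-treated controls graded 4–5 days after contamination.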
# Phytophthora infestans = type: in vivo; conditions: 500 ppm; tomato plants sprayed 24 hours before contamination; grading 5 days after contamination vs control plants
# Puccinia recondita = experiment: In vivo preventive test on Puccinia recondita (brown rust on wheat); conditions: 500 ppm; wheat plants sprayed 24 hours before contamination; grading 10 days after contamination vs control plants
# Description: Wheat plants (“Scipion” variety), sown in starter cups on a 50/50 peat soil-pozzolana substrate and grown at 22° C. (12 h)/20° C. (12 h), are treated at the 1-leaf stage (10 cm height) by spraying with the active ingredient prepared as described above. Plants, used as controls, are treated with the mixture of acetone/tween/DMSO/water not containing the active material. After 24 hours, the plants are contaminated by spraying the leaves with an aqueous suspension of Puccinia recondita spores (100 000 spores per ml).
# Septoria tritici = experiment: In vivo preventive test on Septoria tritici (leaf spot on wheat); conditions: 500 ppm; wheat plants sprayed 24 hours before contamination; grading 21 to 28 days after contamination vs control plants
# Outline: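 Scipion wheat at 1-leaf stage sprayed with compound, controls receiving acetone/tween/DMSO/water vehicle; 24 h later leaves inoculated with Septoria tritici spores (500 000 spores per ml). Efficacy (%) graded versus control plants 21 to 28 days after contamination.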
# Sphaerotheca fuliginea = experiment: In vivo preventive test on Sphaerotheca fuliginea (powdery mildew on cucurbits); conditions: 500 ppm; gherkin plants sprayed 24 hours before contamination; grading 12 days after contamination vs control plants
# Outline: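 Preventive spray of gherkin plants at Z11 cotyledon stage, grown at 24° C; inoculation 24 hours later with Sphaerotheca fuliginea spores (100 000 spores per ml). Efficacy graded 12 days post-inoculation as % versus solvent-treated control plants.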
# [1] = type: physicochemical
# Alternaria brassicae = experiment: In vivo preventive test on Alternaria brassicae (leaf spot on radish); conditions: 500 ppm; radish plants sprayed 24 hours before contamination; grading 5 days after contamination vs control plants
# Description: Radish plants (“Pernod Clair” variety), sown in starter cups on a 50/50 peat soil-pozzolana substrate and grown at 17° C., are treated at the 2-leaf stage by spraying with the active ingredient prepared as described above. Plants, used as controls, are treated with the mixture of acetone/tween/DMSO/water not containing the active material. After 24 hours, the plants are contaminated by spraying the leaves with an aqueous suspension of Alternaria brassicae spores (50 000 spores per ml). The spores are collected from a 15-day-old culture. […] Grading (% of efficacy) is carried out 5 days after the contamination, in comparison with the control plants.
# Pyrenophora teres = experiment: In vivo preventive test on Pyrenophora teres (net blotch on barley); conditions: 500 ppm; barley plants sprayed 24 hours before contamination; grading 12 days after contamination vs control plants
# Description: Barley plants (“Plaisant” variety), sown in starter cups on a 50/50 peat soil-pozzolana substrate and grown at 22° C. (12 h)/20° C. (12 h), are treated at the 1-leaf stage (10 cm height) by spraying with the active ingredient prepared as described above. Plants, used as controls, are treated with the mixture of acetone/tween/DMSO/water not containing the active material. After 24 hours, the plants are contaminated by spraying the leaves with an aqueous suspension of Pyrenophora teres spores (12 000 spores per ml). The spores are collected from a 12-day-old culture. […] Grading (% of efficacy) is carried out 12 days after the contamination, in comparison with the control plants.
# Uromyces appendiculatus = experiment: In vivo preventive test on Uromyces appendiculatus (bean rust); conditions: 500 ppm; bean plants sprayed 24 hours before contamination; grading 10 days after contamination vs control plants
# Description: Bean plants (“Saxa” variety), sown in starter cups on a 50/50 peat soil-pozzolana substrate and grown at 24° C., are treated at the 2-leaf stage (9 cm height) by spraying with the active ingredient prepared as described above. Plants, used as controls, are treated with the mixture of acetone/tween/DMSO/water not containing the active material. After 24 hours, the plants are contaminated by spraying the leaves with an aqueous suspension of Uromyces appendiculatus spores (150 000 spores per ml).
# [2] = method [a]: HPLC/LC-MS on reversed phase at pH 2.7, 0.1% formic acid in water / acetonitrile, gradient 10% to 95% acetonitrile
# [3] = method [a]: HPLC/LC-MS on reversed phase at pH 2.7, 0.1% formic acid in water / acetonitrile, linear gradient 10% to 95% acetonitrile
# [4] = HPLC on reversed phase columns, method [a]: pH 2.7, 0.1% formic acid in water / acetonitrile, linear gradient 10% to 95% acetonitrile
Compound,% of efficacy (protection) (Botrytis cinerea) [%],% of efficacy (protection) (Phytophthora infestans) [%],% of efficacy (protection) (Puccinia recondita) [%],% of efficacy (protection) (Septoria tritici) [%],% of efficacy (protection) (Sphaerotheca fuliginea) [%],"log P [1, 2]",% of efficacy (protection) (Alternaria brassicae) [%],"log P [1, 3]",% of efficacy (protection) (Pyrenophora teres) [%],% of efficacy (protection) (Uromyces appendiculatus) [%],"log P [1, 4]","log P ([1]; HPLC on reversed phase columns, method [a]: pH 2.7, 0.1% formic acid in water and acetonitrile, linear gradient 10% to 95% acetonitrile)"
CCCn1cc(CNC(=O)C2(OC)CC(c3ccc4ncc(Br)cc4c3)=NO2)c(C)n1 (stereo not shown) [compound 50],100,100,88,100,100,–,–,–,–,–,–,–
CC(C)NC(=O)C1(C)ON=C(c2ccc3ncc(Br)cc3c2)C1C(F)(F)F (stereo not shown) [compound 423],–,–,78,–,–,3.71[a],83,–,–,–,–,–
C#Cc1cnc2ccc(C3=NOC(C)(C(=O)NCc4ccc(Cl)cc4)C3)cc2c1 (stereo not shown) [compound 200],–,–,–,–,–,–,–,3.23^[a],71,–,–,–
C#Cc1cnc2ccc(C3=NOC(OC)(C(=O)NCC4COC(C)(C)O4)C3)cc2c1 (stereo not shown) [compound 476],100,85,90,97,98,2.35[a],–,–,–,77,–,–
COC1(C(=O)NCC(O)CO)CC(c2ccc3ncc(Br)cc3c2)=NO1 (stereo not shown) [compound 477],–,98,90,–,75,1.59[a],–,–,–,86,–,–
C#Cc1cnc2ccc(C3=NOC(CC)(C(=O)NCC4COC(C)(C)O4)C3)cc2c1 (mixture of isomers) [compound 441],–,–,83,100,94,2.66[a],–,–,–,91,–,–
C#Cc1cnc2ccc(C3=NOC(CC)(C(=O)NC4CCC4)C3)cc2c1 (racemic) [compound 447],97,–,89,75,75,2.94[a],–,–,–,100,–,–
CCn1cc(CNC(=O)C2(C)CC(c3ccc4ncc(OC)cc4c3)=NO2)c(C)n1 (stereo not shown) [compound 135],–,–,89,100,–,–,100,1.83^[a],–,–,–,–
COC1(C(=O)NC2CCC2)CC(c2ccc3ncc(I)cc3c2)=NO1 (stereo not shown) [compound 482],100,–,83,100,100,2.95[a],–,–,–,98,–,–
C#Cc1cnc2ccc(C3=NOC(OC)(C(=O)NCc4cn(CC)nc4C)C3)cc2c1 (racemic) [compound 442],100,94,89,97,100,2.14[a],–,–,–,88,–,–
C#Cc1cnc2ccc(C3=NOC(C)(C(=O)NCc4ccsc4)C3)cc2c1 (stereo not shown) [compound 515],100,–,–,97,93,–,–,–,–,91,2.71[a],–
C#Cc1cnc2ccc(C3=NOC(CC)(C(=O)NCc4cn(CC)nc4C)C3)cc2c1 (racemic) [compound 438],–,87,88,100,89,2.37[a],–,–,–,97,–,–
COCC(COC)NC(=O)C1(C)CC(c2ccc3ncc(Br)cc3c2)=NO1 (stereo not shown) [compound 305],–,–,–,–,–,–,–,–,–,80,2.56[a],–
Cn1cc(NC(=O)C2(C)CC(c3ccc4ncc(Br)cc4c3)=NO2)cn1 (racemic) [compound 434],–,–,88,100,–,2.17[a],–,–,–,97,–,–
CCn1cc(CNC(=O)C2(C)CC(c3ccc4ncc(-c5ccccc5)cc4c3)=NO2)c(C)n1 (stereo not shown) [compound 140],–,–,81,80,83,–,–,2.63^[a],–,96,–,–
C#CC1(NC(=O)C2(C)CC(c3ccc4ncc(Br)cc4c3)=NO2)CCCCC1 (stereo not shown) [compound 237],–,–,–,–,–,–,71,–,–,80,3.9^[a],–
C#Cc1cnc2ccc(C3=NOC(C=C)(C(=O)NCc4cn(CC)nc4C)C3)cc2c1 (stereo not shown) [compound 724],98,100,71,100,100,–,–,–,–,–,–,2.37[a]
COC1(C(=O)NC2CCC2)CC(c2ccc3ncc(Br)cc3c2)=NO1 (stereo not shown) [compound 414],100,–,89,100,98,2.84[a],–,–,–,100,–,–
C/C(=N\O)C1(C(=O)NC(C)C)CC(c2ccc3ncc(Br)cc3c2)=NO1 (stereo not shown) [compound 420],–,–,94,–,–,2.58[a],–,–,–,97,–,–
C#Cc1cnc2ccc(C3=NOC(OC)(C(=O)NC4CCC4)C3)cc2c1 (racemic) [compound 429],100,–,89,100,83,2.54[a],–,–,–,71,–,–
C=CC1(C(=O)NCc2cn(CC)nc2C)CC(c2ccc3ncc(Br)cc3c2)=NO1 (stereo not shown) [compound 599],100,85,88,100,100,–,–,–,–,–,2.61[a],–
COC1(C(=O)NC2CC2)CC(c2ccc3ncc(I)cc3c2)=NO1 (racemic) [compound 450],100,–,89,98,98,2.48[a],–,–,–,91,–,–
CC(C)NC(=O)C1(C(F)F)CC(c2ccc3ncc(Br)cc3c2)=NO1 (stereo not shown) [compound 480],–,–,90,–,–,–,–,–,–,83,–,–
CC(NC(=O)C1(C)CC(c2ccc3ncc(Br)cc3c2)=NO1)c1ccccn1 (stereo not shown) [compound 205],84,–,–,100,75,–,–,2.14^[a],–,70,–,–
CC(C)NC(=O)C1(C)CC(c2ccc3ncc(-c4ccco4)cc3c2)=NO1 (racemic) [compound 382],–,–,79,–,–,2.77[a],–,–,–,89,–,–
CCn1cc(CNC(=O)C2(C)CC(c3ccc4ncc(-c5cncnc5)cc4c3)=NO2)c(C)n1 (stereo not shown) [compound 265],–,–,88,–,–,–,–,–,–,96,1.62^[a],–
